{
  "source": "the supplement of paper PMC10307832",
  "test_in_all_cases": "relative viability (nuclei count vs DMSO), 5 days (fraction); higher = more cells survive",
  "key": {"NCI-H2126": {"system": "NCI-H2126", "procedure,_shortened": "(§1)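 Medians of duplicate plates are given as relative viability. That measure is the nuclei count in treated wells divided by the count in vehicle wells. Counts were taken on 4× images of lung cancer cell lines in 1536-well plates, 5 days after pin-tool dosing the day after seeding with one drug alone or a fixed anchor-drug dose plus five library-drug doses (not always all listed) in √10 steps.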"}, "LCLC-97TM1": {"system": "LCLC-97TM1", "procedure,_shortened": "as §1"}, "NCI-H322M": {"system": "NCI-H322M", "procedure,_shortened": "as §1"}, "NCI-H2085": {"system": "NCI-H2085", "procedure,_shortened": "as §1"}, "NCI-H1734": {"system": "NCI-H1734", "procedure,_shortened": "as §1"}, "NCI-H1563": {"system": "NCI-H1563", "procedure,_shortened": "as §1"}, "PC-14": {"system": "PC-14", "procedure,_shortened": "as §1"}, "SW 1573": {"system": "SW 1573", "procedure,_shortened": "as §1"}, "NCI-H661": {"system": "NCI-H661", "procedure,_shortened": "as §1"}, "SK-LU-1": {"system": "SK-LU-1", "procedure,_shortened": "as §1"}, "H3255": {"system": "H3255", "procedure,_shortened": "as §1"}},
  "data": [
    {"molecule": "O=c1cc(-c2cccc3c2Sc2ccccc2S3)oc(N2CCOCC2)c1", "note": "+ C[C@]1(O)C[C@@H](c2nc(-c3ccc4ccc(-c5ccccc5)nc4c3)c3c(N)nccn32)C1 [Linsitinib] (partner 1 µM)", "values": [
      {"measurement": "relative viability", "setting": "NCI-H2126; first compound 0.253 µM", "value": 0.809},
      {"measurement": "relative viability", "setting": "NCI-H2126; first compound 0.8 µM", "value": 0.708},
      {"measurement": "relative viability", "setting": "NCI-H2126; first compound 2.53 µM", "value": 0.667},
      {"measurement": "relative viability", "setting": "NCI-H2126; first compound 8 µM", "value": 0.592},
      {"measurement": "relative viability", "setting": "LCLC-97TM1; first compound 0.08 µM", "value": 0.18},
      {"measurement": "relative viability", "setting": "LCLC-97TM1; first compound 0.253 µM", "value": 0.194},
      {"measurement": "relative viability", "setting": "LCLC-97TM1; first compound 0.8 µM", "value": 0.203},
      {"measurement": "relative viability", "setting": "LCLC-97TM1; first compound 2.53 µM", "value": 0.188},
      {"measurement": "relative viability", "setting": "LCLC-97TM1; first compound 8 µM", "value": 0.185},
      {"measurement": "relative viability", "setting": "NCI-H322M; first compound 0.08 µM", "value": 0.868},
      {"measurement": "relative viability", "setting": "NCI-H322M; first compound 0.253 µM", "value": 1.04},
      {"measurement": "relative viability", "setting": "NCI-H322M; first compound 0.8 µM", "value": 0.866},
      {"measurement": "relative viability", "setting": "NCI-H322M; first compound 2.53 µM", "value": 0.928},
      {"measurement": "relative viability", "setting": "NCI-H322M; first compound 8 µM", "value": 0.839},
      {"measurement": "relative viability", "setting": "NCI-H2085; first compound 0.08 µM", "value": 0.812},
      {"measurement": "relative viability", "setting": "NCI-H2085; first compound 0.253 µM", "value": 0.911},
      {"measurement": "relative viability", "setting": "NCI-H2085; first compound 0.8 µM", "value": 0.925},
      {"measurement": "relative viability", "setting": "NCI-H2085; first compound 2.53 µM", "value": 0.846},
      {"measurement": "relative viability", "setting": "NCI-H2085; first compound 8 µM", "value": 0.595},
      {"measurement": "relative viability", "setting": "NCI-H1734; first compound 0.08 µM", "value": 0.854},
      {"measurement": "relative viability", "setting": "NCI-H1734; first compound 0.253 µM", "value": 1.16},
      {"measurement": "relative viability", "setting": "NCI-H1734; first compound 0.8 µM", "value": 1},
      {"measurement": "relative viability", "setting": "NCI-H1734; first compound 2.53 µM", "value": 0.876},
      {"measurement": "relative viability", "setting": "NCI-H1734; first compound 8 µM", "value": 1.13},
      {"measurement": "relative viability", "setting": "NCI-H1563; first compound 0.08 µM", "value": 1.19},
      {"measurement": "relative viability", "setting": "NCI-H1563; first compound 0.253 µM", "value": 1.42},
      {"measurement": "relative viability", "setting": "NCI-H1563; first compound 0.8 µM", "value": 1.2},
      {"measurement": "relative viability", "setting": "NCI-H1563; first compound 2.53 µM", "value": 1.2},
      {"measurement": "relative viability", "setting": "NCI-H1563; first compound 8 µM", "value": 1.06},
      {"measurement": "relative viability", "setting": "PC-14; first compound 0.08 µM", "value": 1.02},
      {"measurement": "relative viability", "setting": "PC-14; first compound 0.253 µM", "value": 1.07},
      {"measurement": "relative viability", "setting": "PC-14; first compound 0.8 µM", "value": 0.966},
      {"measurement": "relative viability", "setting": "PC-14; first compound 2.53 µM", "value": 0.92},
      {"measurement": "relative viability", "setting": "PC-14; first compound 8 µM", "value": 0.948},
      {"measurement": "relative viability", "setting": "SW 1573; first compound 0.08 µM", "value": 0.855},
      {"measurement": "relative viability", "setting": "SW 1573; first compound 0.253 µM", "value": 0.819},
      {"measurement": "relative viability", "setting": "SW 1573; first compound 0.8 µM", "value": 0.685},
      {"measurement": "relative viability", "setting": "SW 1573; first compound 2.53 µM", "value": 0.809},
      {"measurement": "relative viability", "setting": "SW 1573; first compound 8 µM", "value": 0.811},
      {"measurement": "relative viability", "setting": "NCI-H661; first compound 0.08 µM", "value": 0.507},
      {"measurement": "relative viability", "setting": "NCI-H661; first compound 0.253 µM", "value": 0.473},
      {"measurement": "relative viability", "setting": "NCI-H661; first compound 0.8 µM", "value": 0.55},
      {"measurement": "relative viability", "setting": "NCI-H661; first compound 2.53 µM", "value": 0.527},
      {"measurement": "relative viability", "setting": "NCI-H661; first compound 8 µM", "value": 0.591},
      {"measurement": "relative viability", "setting": "SK-LU-1; first compound 0.08 µM", "value": 1.14},
      {"measurement": "relative viability", "setting": "SK-LU-1; first compound 0.253 µM", "value": 1.22},
      {"measurement": "relative viability", "setting": "SK-LU-1; first compound 0.8 µM", "value": 1.27},
      {"measurement": "relative viability", "setting": "SK-LU-1; first compound 2.53 µM", "value": 0.952},
      {"measurement": "relative viability", "setting": "SK-LU-1; first compound 8 µM", "value": 0.918},
      {"measurement": "relative viability", "setting": "H3255; first compound 0.08 µM", "value": 1.15},
      {"measurement": "relative viability", "setting": "H3255; first compound 0.253 µM", "value": 1.03},
      {"measurement": "relative viability", "setting": "H3255; first compound 0.8 µM", "value": 1.02},
      {"measurement": "relative viability", "setting": "H3255; first compound 2.53 µM", "value": 0.865},
      {"measurement": "relative viability", "setting": "H3255; first compound 8 µM", "value": 0.983}
    ]}
  ]
}
